Converted amounts (≈) assume the structure as drawn. The source made the active and inactive calls. The rule behind the calls is not given here.
Columns and labels:
Enterococcus faecalis = assay: Antibacterial activity against Streptococcus faecalis by agar well diffusion method; assay type: functional, organism-based
[1] = test system: Corynebacterium diphtheriae; assay: Antibacterial activity against Corynebacterium diphtheriae by agar well diffusion method; assay type: functional, organism-based
Shigella boydii = assay: Antibacterial activity against Shigella boydii by agar well diffusion method; assay type: functional, organism-based
Escherichia coli = assay: Antibacterial activity against Escherichia coli by agar well diffusion method; assay type: functional, organism-based
Pleurotus ostreatus = assay: Antifungal activity against Pleurotus ostreatus after 7 days by tube dilution method; assay type: functional; settings: 168 h
[2] = test system: Salmonella enterica subsp. enterica serovar Typhi str. CT18; assay: Antibacterial activity against Salmonella typhi by agar well diffusion method; assay type: functional, organism-based
Staphylococcus aureus = assay: Antibacterial activity against Staphylococcus aureus by agar well diffusion method; assay type: functional, organism-based
Epidermophyton floccosum = assay: Antifungal activity against Epidermophyton floccosum after 7 days by tube dilution method; assay type: functional; settings: 168 h

Structure (SMILES) | Activity (Enterococcus faecalis) | Activity [1] | Activity (Shigella boydii) | Activity (Escherichia coli) | MIC (Pleurotus ostreatus) [µg/mL] | Activity [2] | Activity (Staphylococcus aureus) | MIC (Epidermophyton floccosum) [µg/mL]
Cc1ccc(-c2ccc(C#CCCOC(=O)CC(C)C)s2)s1 | Active | Active | Active | Active | 200 (≈ 602 µM) | Active | Active | 200 (≈ 602 µM)
COC1=CC(=O)C[C@@H](C)[C@]12Oc1c(Cl)c(OC)cc(OC)c1C2=O [GRISEOFULVIN] | – | – | – | – | 250 (≈ 709 µM) | – | – | 250 (≈ 709 µM)
C=CC#Cc1ccc(-c2ccc(COC(=O)CC(C)C)s2)s1 | – | – | – | – | 200 (≈ 605 µM) | – | – | 200 (≈ 605 µM)
